Laboratory results as given in patent US20240398817A1, “CARDIO- AND RENOSAFE ANTIDIABETIC THERAPY” (priority 2018, published 2024).

Tested on: patients with type 2 diabetes at high vascular risk
Assay: Cardiovascular and Renal Outcomes Trial: linagliptin 5 mg once daily vs placebo on top of standard of care
Assay type: in vivo
Experimental: The effect of linagliptin on cardiovascular risk in adult patients with type 2 diabetes mellitus and with increased CV risk evidenced by a history of established macrovascular or renal disease (e.g. as defined herein) was evaluated in a multi-center, multi-national, randomized, double-blind parallel group trial. The trial compared the risk of experiencing a major adverse cardiovascular event (MACE) between linagliptin and placebo when these were added to and used concomitantly with standard of care treatments for diabetes (HbA1c), cardiovascular risk factors and renal disease.
The primary endpoint in this trial was the time to first occurrence of three point (3P) MACE. A major adverse cardiac event was defined as a cardiovascular death or a nonfatal myocardial infarction (MI) or a nonfatal stroke. The statistical analysis plan tested for non-inferiority for the occurrence of (3P) MACE. […] The secondary endpoint was a renal composite, defined as renal death or sustained end stage renal disease or sustained decrease of 40% or more in eGFR.
Type 2 diabetes patient with insufficient glycemic control (naïve or pre-treated with any antidiabetic background medication, excluding treatment with GLP-1 receptor agonists, DPP-4inhibitors or SGLT-2 inhibitors if ≥consecutive 7 days, e.g. having HbA1c 6.5-10%), and high risk of cardiovascular events, e.g. defined by: • albuminuria (micro or macro) and previous macrovascular disease: e.g. defined according to Condition I as indicated below; • and/or • impaired renal function: e.g. as defined according to Condition II as indicated below;
Background and aims: People with type 2 diabetes (T2D) are at increased risk for hospitalization for heart failure (hHF), particularly in the setting of concomitant cardiovascular (CV) and/or kidney disease. […] Here we present analyses of HF outcomes with the DPP-4 inhibitor linagliptin (LINA) vs. placebo (PBO) from a Cardiovascular and Renal Outcomes Trial assessing cardiovascular safety and renal microvascular outcome in patients with type 2 diabetes at high vascular risk, a large CV outcomes trial that enrolled participants with T2D at high risk for hHF due to concomitant CV and/or chronic kidney disease. Materials and methods: People with T2D and concomitant CV and/or kidney disease were randomized to receive LINA 5 mg, or PBO once daily (1:1), on top of standard of care. All hHF, CV outcomes, and deaths were centrally adjudicated, with individual and composite HF-related outcomes analyses comparing LINA vs. placebo. Investigator-reported HF-related adverse events, whether or not confirmed by adjudication, were also analyzed. A Cox proportional hazards model adjusting for region and history of HF was used for analyses of first events. Recurrent hHF events were analyzed using a negative binomial model.
Methods: The present Cardiovascular and Renal Outcomes Trial randomized people with T2D and i) concomitant CV disease with UACR >30 mg/g or ii) prevalent CKD (i.e. GFR <45 ml/min/1.73m2 and/or UACR >200 mg/g) to receive the DPP-4 inhibitor linagliptin (5 mg) or placebo once daily in a double-blind fashion. The primary CV endpoint was 3P-MACE, with a key secondary kidney endpoint (adjudicated ESKD, renal death, or sustained ≥40% decrease in eGFR from baseline) and other renal outcomes (including albuminuria and eGFR slope) also assessed. Subgroups were assessed by baseline kidney function (eGFR ≥/<45 ml/min/1.73m2and eGFR ≥/<30, 45 or 60 ml/min/1.73m2).
Adults with type 2 diabetes, HbA1c 6.5-10.0% inclusive, and high CV risk were eligible for inclusion. […] Macrovascular disease eligibility criteria was based on documented and confirmed history of myocardial infarction, coronary artery disease, stroke, carotid artery disease, or peripheral artery disease. Participants with end-stage kidney disease (ESKD), defined as eGFR <15 or requiring maintenance dialysis, were excluded.

[1] = eGFR ≥45 to <60 mL/min/1.73 m^2

With `CC#CCn1c(N2CCC[C@@H](N)C2)nc2c1c(=O)n(Cc1nc(C)c3ccccc3n1)c(=O)n2C` [Linagliptin, 1-[(4-methyl-quinazolin-2-yl)methyl]-3-methyl-7-(2-butyn-1-yl)-8-(3-(R)-amino-piperidin-1-yl)-xanthine] the “Renal death, sustained ESKD, or ≥ doubling of se-creatinine: n” value (eGFR ≥ 45 (n = 3979)) was 54, the “Renal death, sustained ESKD, or ≥ doubling of se-creatinine: rate/100 patient-years” value (eGFR ≥ 45 (n = 3979)) was 1.38 per 100 patient-years and the “3-point MACE: hazard ratio vs placebo” value [1] was 1.12. For the same compound, the “3-point MACE: patients with event/patients analyzed” value [1] was 81/690, the “Key secondary kidney outcome: hazard ratio vs placebo” value [1] was 0.94 and the “Key secondary kidney outcome: patients with event/patients analyzed” value [1] was 51/690. For the same compound, the “3-point MACE: hazard ratio vs placebo” value (eGFR ≥60 mL/min/1.73 m^2) was 0.96, the “3-point MACE: patients with event/patients analyzed” value (eGFR ≥60 mL/min/1.73 m^2) was 103/1294 and the “Key secondary kidney outcome: hazard ratio vs placebo” value (eGFR ≥60 mL/min/1.73 m^2) was 1.46. The “Key secondary kidney outcome: patients with event/patients analyzed” value (eGFR ≥60 mL/min/1.73 m^2) was 54/1294, the “Non-fatal MI as component of 3-point MACE primary outcome: %” value (first event of composite) was “(4.4) %” and the “Non-fatal MI as component of 3-point MACE primary outcome: no.” value (first event of composite) was 154. The “Non-fatal stroke as component of 3-point MACE primary outcome: %” value (first event of composite) was “(1.7) %”, the “Non-fatal stroke as component of 3-point MACE primary outcome: no.” value (first event of composite) was 59 and the “4-point MACE (3-point MACE or hospitalization for unstable angina): no.” value (in vivo) was 463. The “4-point MACE: %” value (in vivo) was “(13.3) %”, the “4-point MACE: hazard ratio vs placebo” value (in vivo) was 1.00 and the “4-point MACE: rate/1000 patient-years” value (in vivo) was 62.0 per 1000 patient years. For the same compound, the “Acute pancreatitis, adjudication confirmed: %” value (in vivo) was 0.3%, the “Acute pancreatitis, adjudication confirmed: N” value (in vivo) was 9^1 and the “Adverse events leading to discontinuation: %” value (in vivo) was 10.3%. For the same compound, the “Adverse events leading to discontinuation: N” value (in vivo) was 359, the “Albuminuria progression: rate/100 patient-years” value (in vivo) was 21.36 per 100 patient-years and the “Albuminuria progression: rate/1000 patient-years” value (in vivo) was 213.6 per 1000 patient years. The “All cancers (malignancies): %” value (in vivo) was 3.3%, the “All cancers (malignancies): N” value (in vivo) was 116 and the “Angioedema events with concomitant ACE/ARB use at baseline: %” value (in vivo) was 0.45%. The “Angioedema events with concomitant ACE/ARB use at baseline: N” value (in vivo) was 13, the “Any adverse events: %” value (in vivo) was 77.2% and the “Changes in body weight or waist circumference vs placebo, in words” value (in vivo) was “No clinically meaningful differences”. For the same compound, the “Changes in weight, systolic and diastolic blood pressure and LDL/HDL cholesterol vs placebo, in words” value (in vivo) was “no different between groups”, the “Chronic pancreatitis, adjudication confirmed: %” value (in vivo) was 0.1% and the “Chronic pancreatitis, adjudication confirmed: N” value (in vivo) was 2. For the same compound, the “Colon cancer: %” value (in vivo) was 0.2%, the “Colon cancer: N” value (in vivo) was 6 and the “Composite microvascular endpoint (renal and eye outcomes): number of patients” value (in vivo) was 785. For the same compound, the “Composite microvascular endpoint: hazard ratio (95% CI) vs placebo” value (in vivo) was 0.86, the “Composite microvascular endpoint: rate/1000 patient-years” value (in vivo) was 221.4 per 1000 patient years and the “Composite ocular endpoint: hazard ratio vs placebo” value (in vivo) was 0.73. For the same compound, the “Composite ocular endpoint: number of patients” value (in vivo) was 36, the “Composite ocular endpoint: rate/1000 patient-years” value (in vivo) was 4.7 per 1000 patient years and the “Composite renal endpoint 2 (50% eGFR) and composite renal endpoint 3 (30% eGFR with eGFR <60) vs placebo, in words” value (in vivo) was “No significant difference”. For the same compound, the “Confirmed hypoglycemic adverse events with plasma glucose <54 mg/dl or severe event: %” value (in vivo) was 15.9%, the “Confirmed hypoglycemic adverse events with plasma glucose <54 mg/dl or severe event: N” value (in vivo) was 557 and the “Contributing to composite microvascular outcome: patients with retinal laser coagulation or anti-VEGF injection for diabetic retinopathy, %” value (in vivo) was 0.2%. For the same compound, the “Contributing to composite microvascular outcome: patients with sustained >50% eGFR decrease, %” value (in vivo) was 0.6%, the “Contributing to composite microvascular outcome: patients with sustained ESKD, %” value (in vivo) was 0.3% and the “Contributing to composite microvascular outcome: patients with vitreous haemorrhage, %” value (in vivo) was 0.1%. The “Contributing to composite ocular outcome: patients with anti-VEGF injection for diabetic retinopathy, %” value (in vivo) was 0.3%, the “Contributing to composite ocular outcome: patients with diabetes related blindness, %” value (in vivo) was 0.1% and the “Contributing to composite ocular outcome: patients with retinal laser coagulation, %” value (in vivo) was 0.2%. The “Contributing to composite ocular outcome: patients with vitreous haemorrhage, %” value (in vivo) was 0.5%, the “Coronary revascularization procedure: %” value (in vivo) was “(4.6) %” and the “Coronary revascularization procedure: hazard ratio vs placebo” value (in vivo) was 1.07. The “Coronary revascularization procedure: no.” value (in vivo) was 160, the “Coronary revascularization procedure: rate/1000 patient-years” value (in vivo) was 21.2 per 1000 patient years and the “Difference between treatment groups in HbA1c changes from baseline over time, in words” value (in vivo) was “significant up to the Week 132 visit”. For the same compound, the “Fasting plasma glucose (FPG) vs placebo, in words” value (in vivo) was “significant differences observed between the treatment groups up to Week 84”, the “Fatal myocardial infarction: %” value (in vivo) was “(0.3) %” and the “Fatal myocardial infarction: hazard ratio vs placebo” value (in vivo) was 0.78. The “Fatal myocardial infarction: no.” value (in vivo) was 11, the “Fatal myocardial infarction: rate/1000 patient-years” value (in vivo) was 1.4 per 1000 patient years and the “Fatal or non-fatal myocardial infarction: %” value (in vivo) was “(4.7) %”. The “Fatal or non-fatal myocardial infarction: hazard ratio vs placebo” value (in vivo) was 1.12, the “Fatal or non-fatal myocardial infarction: no.” value (in vivo) was 165 and the “Fatal or non-fatal myocardial infarction: rate/1000 patient-years” value (in vivo) was 21.8 per 1000 patient years. The “Fatal or non-fatal stroke: %” value (in vivo) was “(2.3) %”, the “Fatal or non-fatal stroke: hazard ratio vs placebo” value (in vivo) was 0.91 and the “Fatal or non-fatal stroke: no.” value (in vivo) was 81. For the same compound, the “Fatal or non-fatal stroke: rate/1000 patient-years” value (in vivo) was 10.6 per 1000 patient years, the “Fatal stroke: %” value (in vivo) was “(0.5) %” and the “Fatal stroke: hazard ratio vs placebo” value (in vivo) was 1.05. For the same compound, the “Fatal stroke: no.” value (in vivo) was 17, the “Fatal stroke: rate/1000 patient-years” value (in vivo) was 2.2 per 1000 patient years and the “Gastric cancer: %” value (in vivo) was 0.0%. The “Gastric cancer: N” value (in vivo) was 0, the “Hospitalization for heart failure or cardiovascular death: %” value (in vivo) was “(11.6) %” and the “Hospitalization for heart failure or cardiovascular death: hazard ratio vs placebo” value (in vivo) was 0.94. The “Hospitalization for heart failure or cardiovascular death: no.” value (in vivo) was 406, the “Hospitalization for heart failure or cardiovascular death: rate per 100 person-years” value (in vivo) was 5.37 per 100 person-years and the “Hospitalization for heart failure or cardiovascular death: rate/1000 patient-years” value (in vivo) was 53.7 per 1000 patient years. For the same compound, the “Hospitalization for unstable angina: %” value (in vivo) was “(1.2) %”, the “Hospitalization for unstable angina: hazard ratio vs placebo” value (in vivo) was 0.87 and the “Hospitalization for unstable angina: no.” value (in vivo) was 42.
